Test results taken from ChEMBL document CHEMBL5604063, “ASAP - DENV-2 NS2B-NS3 protease fluorescence dose response” (2024).
“And” between values parts separate entries of the source, which are not always exact repeats. Identical values can stand only once.

Experiments:
[1] = biological target: T1, Genome polyprotein (dengue virus type 2, UniProt P29990); assay type: functional, Thailand/16681/1984
[2] = biological target: T1, Genome polyprotein; assay type: functional, Thailand/16681/1984; remark: listed apart in the source

T1 sequence (P29990 1346-1475 limits assumed): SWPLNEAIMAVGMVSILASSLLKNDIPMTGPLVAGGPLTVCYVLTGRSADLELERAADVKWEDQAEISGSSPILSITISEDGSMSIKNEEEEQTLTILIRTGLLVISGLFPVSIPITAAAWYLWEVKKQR
T1 sequence (P29990 1476-2093 limits assumed): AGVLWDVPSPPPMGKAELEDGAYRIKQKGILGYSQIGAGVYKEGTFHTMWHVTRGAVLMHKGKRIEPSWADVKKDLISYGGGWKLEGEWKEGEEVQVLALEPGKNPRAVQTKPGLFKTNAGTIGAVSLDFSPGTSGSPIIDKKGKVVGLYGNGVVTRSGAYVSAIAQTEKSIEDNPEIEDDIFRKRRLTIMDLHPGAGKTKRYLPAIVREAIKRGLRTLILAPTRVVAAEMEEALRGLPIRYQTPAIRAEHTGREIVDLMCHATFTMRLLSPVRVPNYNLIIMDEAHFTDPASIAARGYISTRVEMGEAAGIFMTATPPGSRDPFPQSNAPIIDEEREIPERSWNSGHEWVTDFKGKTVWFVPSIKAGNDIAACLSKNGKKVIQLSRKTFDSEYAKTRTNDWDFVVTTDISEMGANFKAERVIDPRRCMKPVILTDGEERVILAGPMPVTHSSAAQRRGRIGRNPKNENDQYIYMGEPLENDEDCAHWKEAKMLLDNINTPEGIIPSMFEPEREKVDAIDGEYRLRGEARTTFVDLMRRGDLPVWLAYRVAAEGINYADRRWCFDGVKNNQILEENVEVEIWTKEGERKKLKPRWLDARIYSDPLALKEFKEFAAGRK

| SMILES | IC50 [1] | IC50 [2] |
| --- | --- | --- |
| COCCOc1ccc(Cl)cc1C(=O)Nc1ccc2c(c1)CNC2 | > 99.5 µM | > 100 µM |
| O=C(Nc1ccc2c(c1)CNC2)N1C[C@H](C2CC2)C[C@@H]1C1CC1 | > 99.5 µM | > 100 µM |
| Cn1ncc(C(=O)Nc2cc(CCCN)ccn2)c1O | > 99.5 µM | > 100 µM |
| C[C@H]1Oc2c(cccc2C(=O)Nc2ccc3c(c2)CNC3)NC1=O | 89.3 µM | 90.4 µM |
| O=C(Nc1ccc2c(c1)CNC2)c1cc(Br)cc2[nH]c(C3CCOCC3)nc12 | > 99.5 µM | > 100 µM |
| CC(C)(C)O[C@H]1CCCN(C(=O)Nc2ccc3c(c2)CNC3)C1 | > 99.5 µM | > 100 µM |
| N#C[C@H](Nc1ccc2c(c1)CNC2)c1ccnc(C(F)(F)F)c1 | > 99.5 µM | > 100 µM |
| O=C(Nc1ccc2c(c1)CNC2)N1CCC[C@](O)(c2ccccc2)C1 | > 99.5 µM | > 100 µM |
| O=C1CCN(c2cc(Cl)cc(C(=O)Nc3ccc4c(c3)CNC4)c2)C(=O)N1 | > 99.5 µM | > 100 µM |
| CCN(CC)C[C@H]1CCCN(C(=O)Nc2ccc3c(c2)CNC3)C1 | > 99.5 µM | > 100 µM |
| Cn1ncc2c(C(=O)Nc3ccc4c(c3)CNC4)cc(C3CC3)nc21 | > 99.5 µM | > 100 µM |
| C[C@H]1CC2(CN1C(=O)Nc1ccc3c(c1)CNC3)CC(F)(F)C2 | > 99.5 µM | > 100 µM |
| O=C1Cc2c(cc(Br)cc2C(=O)Nc2ccc3c(c2)CNC3)N1 | > 99.5 µM | > 100 µM |
| O=C(Nc1ccc2c(c1)CNC2)c1cc(Cl)cc2cn[nH]c12 | > 99.5 µM | > 100 µM |
| Cc1c[nH]c2ncnc(C(=O)Nc3ccc4c(c3)CNC4)c12 | > 99.5 µM | > 100 µM |
| O=C(Nc1ccc2c(c1)CNC2)[C@H]1C[C@@H]1c1ccccc1 | > 99.5 µM | > 100 µM |
| Nc1noc2cccc(C(=O)Nc3ccc4c(c3)CNC4)c12 | > 99.5 µM | > 100 µM |
| O=C(Cc1ccc2ncsc2c1)Nc1ccc2c(c1)CNC2 | > 99.5 µM | > 100 µM |
| Clc1cc([C@H](C#Cc2ccccc2)Nc2ccc3c(c2)CNC3)c2cn[nH]c2c1 | > 99.5 µM | 88.8 µM |
| Cc1nc2c(C(=O)Nc3ccc4c(c3)CNC4)cccc2[nH]1 | > 99.5 µM | > 100 µM |
| O=C(Nc1ccc2c(c1)CNC2)c1cc(Br)cc2[nH]c(=O)[nH]c12 | 67.1 µM | 54.4 µM |
| Cc1cc2c(C(=O)Nc3ccc4c(c3)CNC4)cccc2[nH]1 | > 99.5 µM | > 100 µM |

| SMILES | IC50 [1] | IC50 [2] |
| --- | --- | --- |
| O=C(Nc1ccc2c(c1)CNC2)c1ccc2sncc2c1 | > 99.5 µM | > 100 µM |
| O=C(NCCCn1ccnc1)[C@H](Nc1ccc2c(c1)CNC2)c1cc(Cl)cc(C2CC2)c1 | > 99.5 µM | > 100 µM |
| O=C(Nc1ccc2c(c1)CNC2)c1cc(Cl)ccc1-n1cncn1 | > 99.5 µM | > 100 µM |
| Cc1nc(C2CC2)[nH]c1C(=O)Nc1cc(CCCN)ccn1 | > 99.5 µM | > 100 µM |
| CC(C)c1nccn1C[C@H]1CCCN1C(=O)Nc1ccc2c(c1)CNC2 | > 99.5 µM | > 100 µM |
| O=C1COc2c(cccc2C(=O)Nc2ccc3c(c2)CNC3)N1 | > 99.5 µM | > 100 µM |
| Cc1c(C(=O)Nc2cc(-c3cccnc3)ccn2)cc(C2CC2)n1C | 9.09 µM and 8.4 µM and 6.31 µM | 6.7 µM and 9.67 µM |
| O=C(Nc1ccc2c(c1)CNC2)c1cccc2ccncc12 | > 99.5 µM | > 100 µM |
| O=C(Nc1ccc2c(c1)CNC2)c1cc(Cl)nc2[nH]ccc12 | > 99.5 µM | > 100 µM |
| Cc1nc2c(C(=O)Nc3ccc4c(c3)CNC4)cc(Cl)cc2[nH]1 | > 99.5 µM | 80.9 µM |
| N#C[C@H](Nc1ccc2c(c1)CNC2)c1cncc2ccccc12 | > 99.5 µM | > 100 µM |
| O=C(Nc1ccc2c(c1)CNC2)c1ccc2nc(O)sc2c1 | > 99.5 µM | > 100 µM |
| CC1CCN(CC[C@H]2CCCN2C(=O)Nc2ccc3c(c2)CNC3)CC1 | > 99.5 µM | > 100 µM |
| O=C(Nc1ccc2c(c1)CNC2)c1cc2ncccc2s1 | > 99.5 µM | > 100 µM |
| N#Cc1ccc(C(=O)Nc2ccc3c(c2)CNC3)cc1Cl | > 99.5 µM | > 100 µM |
| CC(C)(C)OC(=O)N1Cc2cc(NC(=O)c3cc(Cl)cc4[nH]ncc34)cc(Br)c2C1 | > 99.5 µM | > 100 µM |
| COC(=O)C(C)(C)NC(=O)[C@H](Nc1ccc2c(c1)CNC2)c1cc(Cl)cc(C2CC2)c1 | > 99.5 µM | > 100 µM |
| O=C(Nc1ccc2c(c1)CNC2)c1cccc(O)c1 | > 99.5 µM | > 100 µM |
| O=C(Nc1ccc2c(c1)CNC2)c1nc(Cl)nc2[nH]ccc12 | > 99.5 µM | > 100 µM |
| Cc1[nH]c2ccccc2c1[C@H]1CCN(C(=O)Nc2ccc3c(c2)CNC3)C1 | > 99.5 µM | > 100 µM |
| O=C1COc2cc(C(=O)Nc3ccc4c(c3)CNC4)ccc2N1 | > 99.5 µM | > 100 µM |
| O=C(Nc1ccc2c(c1)CNC2)c1cc(C(F)(F)F)nc2[nH]ccc12 | > 99.5 µM | > 100 µM |

| SMILES | IC50 [1] | IC50 [2] |
| --- | --- | --- |
| CC1=CC[C@H](c2cccc(-c3nn[nH]n3)c2)Nc2cc(Cl)ccc21 | 69.6 µM | 33.9 µM |
| Cc1cc(C)n([C@H]2CCCN(C(=O)Nc3ccc4c(c3)CNC4)C2)n1 | > 99.5 µM | > 100 µM |
| O=C(Nc1ccc2c(c1)CNC2)c1ccc(-c2cncs2)cc1 | > 99.5 µM | > 100 µM |
| O=C(Nc1ccc2c(c1)CNC2)c1ncc(Cc2ccccc2)s1 | > 99.5 µM | > 100 µM |
| CCOC(=O)c1ncoc1CNC(=O)[C@H](Nc1ccc2c(c1)CNC2)c1cc(Cl)cc(C2CC2)c1 | > 99.5 µM | > 100 µM |
| O=C(NC1CCOCC1)[C@H](Nc1ccc2c(c1)CNC2)c1cc(Cl)cc2[nH]ncc12 | > 99.5 µM | > 100 µM |
| CC(C)(C)NC(=O)[C@H](Nc1ccc2c(c1)CNC2)c1cc(Cl)cc2[nH]ncc12 | > 99.5 µM | > 100 µM |
| O=C(Nc1ccc2c(c1)CNC2)c1cccc2sccc12 | > 99.5 µM | > 100 µM |
| O=C(Nc1ccc2c(c1)CNC2)c1cncc2[nH]ncc12 | > 99.5 µM | > 100 µM |
| O=C(Nc1ccc2c(c1)CNC2)N1CCC[C@H]1c1cc(C(F)(F)F)no1 | > 99.5 µM | > 100 µM |
| O=C(Nc1ccc2c(c1)CNC2)c1ccc2[nH]cnc2c1 | > 99.5 µM | > 100 µM |
| O=C(Nc1ccc2c(c1)CNC2)c1cc(F)c2[nH]ccc2c1 | > 99.5 µM | > 100 µM |
| O=C(Nc1ccc2c(c1)CNC2)c1ccnc2[nH]ccc12 | > 99.5 µM | > 100 µM |
| O=C(Nc1ccc2c(c1)CNC2)c1ccc2cc[nH]c2c1 | > 99.5 µM | > 100 µM |
| Cc1cccc(-c2nc3c(C(=O)Nc4ccc5c(c4)CNC5)cc(Cl)cc3[nH]2)c1O | 7.23 µM and 5.37 µM and 4.3 µM | 18.7 µM |
| NCc1cc(C=C2CC(C(=O)O)C2)cc(NC(=O)c2cc(Cl)cc(NC(=O)OCc3ccccc3)c2)c1 (stereo unspecified) | > 99.5 µM | > 100 µM |
| O=C(Nc1ccc2c(c1)CNC2)c1cccc2[nH]c(=O)[nH]c12 | > 99.5 µM | 65.3 µM |
| CC[C@H]1CN(C(=O)Nc2ccc3c(c2)CNC3)C[C@@H]1c1ccc(OC)cc1 | > 99.5 µM | > 100 µM |
| O=C(Nc1ccc2c(c1)CNC2)c1ccc(OC(F)(F)F)cc1 | > 99.5 µM | > 100 µM |
| O=C(Nc1ccc2c(c1)CNC2)c1ncnc2[nH]ccc12 | > 99.5 µM | > 100 µM |
| NCc1cc(Cl)cc(C(=O)Nc2ccc3c(c2)C(=O)OC3)c1 | > 99.5 µM | > 100 µM |
| O=C(Nc1ccc2c(c1)CNC2)c1cc(Cl)cc2[nH]c(-c3ncnn3C3CC3)nc12 | > 99.5 µM | > 100 µM |

| SMILES | IC50 [1] | IC50 [2] |
| --- | --- | --- |
| O=C(Nc1ccc2c(c1)CNC2)c1c(Cl)ccc2c1OCO2 | > 99.5 µM | > 100 µM |
| CC(C)CNC(=O)[C@H](Nc1ccc2c(c1)CNC2)c1cc(Cl)cc2[nH]ncc12 | > 99.5 µM | > 100 µM |
| CC(=O)Nc1cccc(C(=O)Nc2ccc3c(c2)CNC3)n1 | > 99.5 µM | > 100 µM |
| NCCCc1ccnc(NC(=O)c2cc(C3CC3)[nH]n2)c1 | > 99.5 µM | > 100 µM |
| CC(C)(C)NC(=O)[C@H](Nc1ccc2c(c1)CNC2)c1cc(Cl)cc(C2CC2)c1 | > 99.5 µM | > 100 µM |
| CCc1cnccc1-c1nc2c(C(=O)Nc3ccc4c(c3)CNC4)cc(Cl)cc2[nH]1 | > 99.5 µM | > 100 µM |
| CCOCCNC(=O)[C@H](Nc1ccc2c(c1)CNC2)c1cc(Cl)cc2[nH]ncc12 | > 99.5 µM | > 100 µM |
| O=C(Nc1ccc2c(c1)CNC2)c1cccc2ncccc12 | > 99.5 µM | > 100 µM |
| O=C(Nc1ccc2c(c1)CNC2)N1CCC[C@H](Cc2nccs2)C1 | > 99.5 µM | > 100 µM |
| CCCNC(=O)[C@H](Nc1ccc2c(c1)CNC2)c1cc(Cl)cc2[nH]ncc12 | > 99.5 µM | > 100 µM |
| CC1(C)C(=O)Nc2ccc(C(=O)Nc3ccc4c(c3)CNC4)cc21 | > 99.5 µM | > 100 µM |
| O=C(Nc1ccc2c(c1)CNC2)c1ccc2ncccc2c1 | > 99.5 µM | > 100 µM |
| O=C(Nc1ccc2c(c1)CNC2)c1ccc2ncsc2c1 | > 99.5 µM | > 100 µM |
| O=C1Cc2c(cccc2C(=O)Nc2ccc3c(c2)CNCCC3)N1 | > 99.5 µM | 90.1 µM |
| CNC(=O)[C@H](Nc1ccc2c(c1)C(=O)OC2)c1cc(Cl)cc2[nH]ncc12 | > 99.5 µM | > 100 µM |
| O=C(Nc1ccc2c(c1)CNC2)c1cc(Cl)cc2[nH]c(C3(n4ccnn4)CC3)nc12 | > 99.5 µM | > 100 µM |
| O=C(Nc1ccc2c(c1)CNC2)c1cccc2[nH]cnc12 | > 99.5 µM | > 100 µM |
| O=C(Nc1ccc2c(c1)CNC2)c1ccc2[nH]ccc2c1 | > 99.5 µM | > 100 µM |
| C[C@H](C1CC1)n1ncc2c(C(=O)Nc3ccc4c(c3)CNC4)cc(C3CC3)nc21 | > 99.5 µM | > 100 µM |
| Cn1cc2c(C(=O)Nc3ccc4c(c3)CNC4)cccc2n1 | > 99.5 µM | > 100 µM |
| Cc1csc(CO[C@H]2CCN(C(=O)Nc3ccc4c(c3)CNC4)C2)n1 | > 99.5 µM | > 100 µM |
| Clc1cc([C@H](C#CC2CC2)Nc2ccc3c(c2)CNC3)c2cn[nH]c2c1 | > 99.5 µM | > 100 µM |
